Test results reported in ChEMBL document CHEMBL6127154, “Pursuing Polypharmacology: Benzothiopyranoindoles as G-Quadruplex Stabilizers and Topoisomerase I Inhibitors for Effective Anticancer Strategies” (ACS Med Chem Lett, 2024).
Active and inactive are the calls of the source. No cut-off for these calls is given here.

Assays:
K562 = experiment: Antiproliferative activity against human K562 cells assessed as growth inhibition incubated for 48 hrs by SRB assay; type: functional
786-0 = experiment: Antiproliferative activity against human 786-0 cells assessed as growth inhibition incubated for 48 hrs by SRB assay; type: functional
PC-3 = experiment: Antiproliferative activity against human PC-3 cells assessed as growth inhibition incubated for 48 hrs by SRB assay; type: functional
IGROV-1 = experiment: Antiproliferative activity against human IGROV-1 cells assessed as growth inhibition incubated for 48 hrs by SRB assay; type: functional
Quadruplex DNA [1] = experiment: Thermal stabilization of human Tel26-hy G4 quadruplex DNA assessed as change in melting temperature (deltaT1/2) incubated for 10 mins by circular dichroism spectroscopic analysis (reference value: 55.4 +/- 0.1 degreeC); type: nucleic-acid assay
SK-OV-3 = experiment: Antiproliferative activity against human SK-OV-3 cells assessed as growth inhibition incubated for 48 hrs by SRB assay; type: functional
Homo sapiens = species: Homo sapiens; experiment: Inhibition of human Topoisomerase II assessed as relaxation of supercoiled plasmid pBR322 DNA at 2.5 uM incubated for 1 hr by ethidium bromide staining based agarose gel electrophoresis
HCT-15 = experiment: Antiproliferative activity against human HCT-15 cells assessed as growth inhibition incubated for 48 hrs by SRB assay; type: functional
CCRF-CEM = experiment: Antiproliferative activity against human CCRF-CEM cells assessed as growth inhibition incubated for 48 hrs by SRB assay; type: functional
COLO 205 = experiment: Antiproliferative activity against human COLO 205 cells assessed as growth inhibition incubated for 48 hrs by SRB assay; type: functional
ACHN = experiment: Antiproliferative activity against human ACHN cells assessed as growth inhibition incubated for 48 hrs by SRB assay; type: functional
T47D = experiment: Antiproliferative activity against human T47D cells assessed as growth inhibition incubated for 48 hrs by SRB assay; type: functional
TK-10 = experiment: Antiproliferative activity against human TK-10 cells assessed as growth inhibition incubated for 48 hrs by SRB assay; type: functional
NCI-H23 = experiment: Antiproliferative activity against human NCI-H23 cells assessed as growth inhibition incubated for 48 hrs by SRB assay; type: functional
SF-539 = experiment: Antiproliferative activity against human SF-539 cells assessed as growth inhibition incubated for 48 hrs by SRB assay; type: functional
SK-MEL-5 = experiment: Antiproliferative activity against human SK-MEL-5 cells assessed as growth inhibition incubated for 48 hrs by SRB assay; type: functional
RPMI-8226 = experiment: Antiproliferative activity against human RPMI-8226 cells assessed as growth inhibition incubated for 48 hrs by SRB assay; type: functional
UACC-257 = experiment: Antiproliferative activity against human UACC-257 cells assessed as growth inhibition incubated for 48 hrs by SRB assay; type: functional
KM12 = experiment: Antiproliferative activity against human KM12 cells assessed as growth inhibition incubated for 48 hrs by SRB assay; type: functional
SNB-19 = experiment: Antiproliferative activity against human SNB-19 cells assessed as growth inhibition incubated for 48 hrs by SRB assay; type: functional
SR = experiment: Antiproliferative activity against human SR cells assessed as growth inhibition incubated for 48 hrs by SRB assay; type: functional
SW-620 = experiment: Antiproliferative activity against human SW620 cells assessed as growth inhibition incubated for 48 hrs by SRB assay; type: functional
HCT-116 [2] = experiment: Induction of DNA damage in human HCT-116 cells assessed as increase in 53BP1 foci positive cells incubated for 24 hrs by immunofluorescence staining based analysis; type: functional, cell-based
OVCAR-5 = experiment: Antiproliferative activity against human OVCAR-5 cells assessed as growth inhibition incubated for 48 hrs by SRB assay; type: functional
MCF7 = experiment: Antiproliferative activity against human MCF7 cells assessed as growth inhibition incubated for 48 hrs by SRB assay; type: functional
HCT-116 [3] = experiment: Antiproliferative activity against human HCT-116 cells assessed as growth inhibition incubated for 48 hrs by SRB assay; type: functional
OVCAR-4 = experiment: Antiproliferative activity against human OVCAR-4 cells assessed as growth inhibition incubated for 48 hrs by SRB assay; type: functional
UO-31 = experiment: Antiproliferative activity against human UO-31 cells assessed as growth inhibition incubated for 48 hrs by SRB assay; type: functional
SNB-75 = experiment: Antiproliferative activity against human SNB-75 cells assessed as growth inhibition incubated for 48 hrs by SRB assay; type: functional
NCI-H460 = experiment: Antiproliferative activity against human NCI-H460 cells assessed as growth inhibition incubated for 48 hrs by SRB assay; type: functional
BT-549 = experiment: Antiproliferative activity against human BT-549 cells assessed as growth inhibition incubated for 48 hrs by SRB assay; type: functional
NCI/ADR-RES = experiment: Antiproliferative activity against human NCI/ADR-RES cells assessed as growth inhibition incubated for 48 hrs by SRB assay; type: functional
HT-29 = experiment: Antiproliferative activity against human HT-29 cells assessed as growth inhibition incubated for 48 hrs by SRB assay; type: functional
SF-268 = experiment: Antiproliferative activity against human SF-268 cells assessed as growth inhibition incubated for 48 hrs by SRB assay; type: functional
SK-MEL-28 = experiment: Antiproliferative activity against human SK-MEL-28 cells assessed as growth inhibition incubated for 48 hrs by SRB assay; type: functional
Hs-578T = experiment: Antiproliferative activity against human Hs-578T cells assessed as growth inhibition incubated for 48 hrs by SRB assay; type: functional
UACC-62 = experiment: Antiproliferative activity against human UACC-62 cells assessed as growth inhibition incubated for 48 hrs by SRB assay; type: functional
SN12C = experiment: Antiproliferative activity against human SN12C cells assessed as growth inhibition incubated for 48 hrs by SRB assay; type: functional
EKVX = experiment: Antiproliferative activity against human EKVX cells assessed as growth inhibition incubated for 48 hrs by SRB assay; type: functional
Quadruplex DNA [4] = experiment: Thermal stabilization of human c-Kit2 G4 quadruplex DNA assessed as change in melting temperature (deltaT1/2) incubated for 10 mins by circular dichroism spectroscopic analysis (reference value: 62.4 +/-0.1 degreeC); type: nucleic-acid assay
Quadruplex DNA [5] = experiment: Thermal stabilization of human Tel23-p G4 quadruplex DNA assessed as change in melting temperature (deltaT1/2) incubated for 10 mins by circular dichroism spectroscopic analysis (reference value: 68.2 +/- 0.1 degreeC); type: nucleic-acid assay
M14 = experiment: Antiproliferative activity against human M14 cells assessed as growth inhibition incubated for 48 hrs by SRB assay; type: functional
U-251 = experiment: Antiproliferative activity against human U-251 cells assessed as growth inhibition incubated for 48 hrs by SRB assay; type: functional
Quadruplex DNA [6] = experiment: Thermal stabilization of human Tel23-hy G4 quadruplex DNA assessed as change in melting temperature (deltaT1/2) incubated for 10 mins by circular dichroism spectroscopic analysis (reference value: 48 +/- 0.1 degreeC); type: nucleic-acid assay
Malme-3M = experiment: Antiproliferative activity against human Malme-3M cells assessed as growth inhibition incubated for 48 hrs by SRB assay; type: functional
Quadruplex DNA [7] = experiment: Thermal stabilization of human c-Myc G4 quadruplex DNA assessed as change in melting temperature (deltaT1/2) incubated for 10 mins by circular dichroism spectroscopic analysis (reference value: 70.5 +/- 0.1 degreeC); type: nucleic-acid assay

`CCN(CC)CCn1c2ccc(O)cc2c2sc3cc(OC)ccc3c(=O)c21` was tested, and the GI (K562) was 1.24 µM, the GI (786-0) was 1.39 µM and the GI (PC-3) was 1.82 µM. The GI (IGROV-1) was 1.59 µM, the ΔTm (Quadruplex DNA [1]) was 7.5 °C and the GI (SK-OV-3) was 13.4 µM. The inhibition (Homo sapiens) was “Active”, the GI (HCT-15) was 1.2 µM and the GI (CCRF-CEM) was 1.09 µM. For the same compound, the GI (COLO 205) was 3.08 µM, the GI (ACHN) was 1.13 µM and the GI (T47D) was 14.2 µM. The GI (TK-10) was 9.05 µM, the GI (NCI-H23) was 1.56 µM and the GI (SF-539) was 1.76 µM. For the same compound, the GI (SK-MEL-5) was 1.74 µM, the GI (RPMI-8226) was 1.95 µM and the GI (UACC-257) was 2.1 µM. The GI (KM12) was 1.84 µM, the GI (SNB-19) was 1.51 µM and the GI (SR) was 1.11 µM. The GI (SW-620) was 0.675 µM, the Activity (HCT-116 [2]) was “Active” and the GI (OVCAR-5) was 2.22 µM. For the same compound, the GI (MCF7) was 1.18 µM, the GI (HCT-116 [3]) was 1.07 µM and the GI (OVCAR-4) was 1.81 µM. It also gave a GI (UO-31) of 1.9 µM, a GI (SNB-75) of 2.39 µM and a GI (NCI-H460) of 1.22 µM. The GI (BT-549) was 6.08 µM, the GI (NCI/ADR-RES) was 1.23 µM and the GI (HT-29) was 1.75 µM. It also gave a GI (SF-268) of 7.34 µM, a GI (SK-MEL-28) of 1.8 µM and a GI (Hs-578T) of 1.95 µM. It also gave a GI (UACC-62) of 1.89 µM, a GI (SN12C) of 5.83 µM and a GI (EKVX) of 1.67 µM. For the same compound, the ΔTm (Quadruplex DNA [4]) was > 20 °C, the ΔTm (Quadruplex DNA [5]) was > 20 °C and the GI (M14) was 1.64 µM. It also gave a GI (U-251) of 1.58 µM, a ΔTm (Quadruplex DNA [6]) of 9.6 °C and a GI (Malme-3M) of 1.87 µM. The ΔTm (Quadruplex DNA [7]) was > 20 °C.

`CCN(CC)CCn1c2ccc(OC)cc2c2sc3cc(OC)ccc3c(=O)c21` gave a GI (K562) of 0.728 µM, a GI (786-0) of 1.59 µM and a GI (PC-3) of 1.34 µM. The GI (IGROV-1) was 1.53 µM, the ΔTm (Quadruplex DNA [1]) was 10.4 °C and the GI (SK-OV-3) was 3.07 µM. For the same compound, the inhibition (Homo sapiens) was “Active”, the GI (HCT-15) was 0.861 µM and the GI (CCRF-CEM) was 1.04 µM. For the same compound, the GI (COLO 205) was 1.39 µM, the GI (ACHN) was 1 µM and the GI (T47D) was 2 µM. For the same compound, the GI (TK-10) was 2.33 µM, the GI (NCI-H23) was 1.9 µM and the GI (SF-539) was 1.66 µM. For the same compound, the GI (SK-MEL-5) was 1.74 µM, the GI (RPMI-8226) was 1.47 µM and the GI (UACC-257) was 1.92 µM. The GI (KM12) was 2 µM, the GI (SNB-19) was 2.43 µM and the GI (SR) was 0.704 µM. For the same compound, the GI (SW-620) was 0.825 µM, the Activity (HCT-116 [2]) was “Active” and the GI (OVCAR-5) was 1.92 µM. For the same compound, the GI (MCF7) was 1.16 µM, the GI (HCT-116 [3]) was 0.659 µM and the GI (OVCAR-4) was 1.84 µM. For the same compound, the GI (UO-31) was 1.35 µM, the GI (SNB-75) was 1.11 µM and the GI (NCI-H460) was 1.08 µM. The GI (BT-549) was 2.24 µM, the GI (NCI/ADR-RES) was 1.24 µM and the GI (HT-29) was 1.52 µM. The GI (SF-268) was 1.87 µM, the GI (SK-MEL-28) was 1.7 µM and the GI (Hs-578T) was 1.96 µM. The GI (UACC-62) was 1.8 µM, the GI (SN12C) was 2.03 µM and the GI (EKVX) was 1.6 µM. The ΔTm (Quadruplex DNA [4]) was > 20 °C, the ΔTm (Quadruplex DNA [5]) was > 20 °C and the GI (M14) was 1.64 µM. For the same compound, the GI (U-251) was 1.55 µM, the ΔTm (Quadruplex DNA [6]) was 11 °C and the GI (Malme-3M) was 1.59 µM. The ΔTm (Quadruplex DNA [7]) was > 20 °C.
